Values of other authors, collected in article PMC3160894, “Isolation and Characterization of CvIV4: A Pain Inducing α- Scorpion Toxin” (PLoS ONE, 2011).

Test system: Nav1.7
Details: ref [19], [20]
Description: Given that buthid scorpions produce toxins that bind Na^+ channels in excitable membranes, it is plausible that their venom induces pain by initiating action potentials in nociceptors. Because some human pain disorders involve Na^+ channels expressed in nociceptors, [15], there has been an effort, albeit limited, to determine the components in buthid venom that induce pain with the goal of isolating peptides that discriminate among the DRG-expressed VGSCs. […] Because β-toxins make Na^+ channel ... || CvIV4 also slowed the fast inactivation and produced a persistent Na^+ current in rNav1.2, rNav1.3 and rNav1.4. […] Given that CvIV4 and CeII8 are similar in structure but differ in function and isoform selectivity, a comparison of these two toxins should improve our understanding of the structural characteristics that determine New World scorpion toxin selectivity and function.

Substance	Effect on fast inactivation of Nav1.7
AahII: α-toxin from Androctonus australis Hector; GenBank P01484	slow the fast inactivation of Nav1.7
LqhIII: α-toxin from Leiurus quinquestriatus hebraeus; GenBank P59355	slow the fast inactivation of Nav1.7
ODI: α-toxin from Odonthobuthus doriae; GenBank P84646	slow the fast inactivation of Nav1.7
